Legend:
Assay type in all cases: biochemical
Settings in all cases: pH 8
FBS-AChE, soluble = biological target: T1, FBS-AChE, soluble (Bos taurus, UniProt P23795)
T1 sequence (P23795 31-613): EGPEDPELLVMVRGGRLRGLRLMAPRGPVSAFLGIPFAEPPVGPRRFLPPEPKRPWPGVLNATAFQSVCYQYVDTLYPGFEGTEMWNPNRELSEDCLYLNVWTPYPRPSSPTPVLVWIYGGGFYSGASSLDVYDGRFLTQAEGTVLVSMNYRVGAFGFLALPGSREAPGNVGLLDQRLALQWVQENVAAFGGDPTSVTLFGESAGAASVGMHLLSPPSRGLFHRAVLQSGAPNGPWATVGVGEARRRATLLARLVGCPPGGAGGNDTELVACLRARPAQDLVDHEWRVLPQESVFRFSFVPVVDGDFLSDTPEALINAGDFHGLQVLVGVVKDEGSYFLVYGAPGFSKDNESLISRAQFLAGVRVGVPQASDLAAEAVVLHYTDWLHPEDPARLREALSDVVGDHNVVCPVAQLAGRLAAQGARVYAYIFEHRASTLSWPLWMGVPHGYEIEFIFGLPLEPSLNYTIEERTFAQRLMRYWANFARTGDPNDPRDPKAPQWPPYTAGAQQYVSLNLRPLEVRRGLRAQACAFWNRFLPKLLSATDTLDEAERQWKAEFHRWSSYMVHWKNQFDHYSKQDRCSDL

[1] = biological target: T2, FBS-AChE, immobilized (polyurethane coupled) (Bos taurus, UniProt P23795)
T2 sequence (P23795 31-613): T1 sequence (P23795 31-613)

Equine-BChE, soluble = Equine-BChE, soluble (Equus caballus, UniProt P81908)
[2] = biological target: Equine-BChE, immobilized (polyurethane coupled) (Equus caballus, UniProt P81908)
Equine-BChE, immobilized (polyurethane coupled), sequence (P81908 whole entry): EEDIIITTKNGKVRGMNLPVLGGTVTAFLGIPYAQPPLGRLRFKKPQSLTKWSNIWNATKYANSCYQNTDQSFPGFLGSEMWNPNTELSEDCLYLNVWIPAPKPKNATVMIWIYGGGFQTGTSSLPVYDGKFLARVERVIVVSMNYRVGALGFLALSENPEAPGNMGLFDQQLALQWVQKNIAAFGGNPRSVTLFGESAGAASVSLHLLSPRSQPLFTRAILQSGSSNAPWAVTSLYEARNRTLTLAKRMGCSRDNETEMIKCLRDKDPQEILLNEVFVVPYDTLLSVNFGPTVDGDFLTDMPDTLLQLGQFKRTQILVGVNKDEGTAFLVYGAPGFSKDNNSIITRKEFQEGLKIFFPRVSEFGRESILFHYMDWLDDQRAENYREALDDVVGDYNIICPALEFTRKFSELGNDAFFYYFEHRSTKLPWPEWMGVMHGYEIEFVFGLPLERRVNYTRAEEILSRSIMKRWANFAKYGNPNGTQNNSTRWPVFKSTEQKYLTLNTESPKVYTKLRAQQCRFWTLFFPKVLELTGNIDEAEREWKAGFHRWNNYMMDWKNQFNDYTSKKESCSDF

Equine-BChE, soluble, sequence (P81908 whole entry): as above

Compound `CC(=O)SCC[N+](C)(C)C.[I-]` [acetylthiocholine, Acetylthiocholine iodide] has a Kcat (FBS-AChE, soluble) of 280000 min⁻¹, a Km (FBS-AChE, soluble) of 119 µM and a Kss (FBS-AChE, soluble) of 18 mM. It also gave a Kcat [1] of 59000 min⁻¹, a Km [1] of 1.09 mM and a Kss [1] of 22 mM.

Work on `CCCC(=O)SCC[N+](C)(C)C.[I-]` [butyrylthiocholine, S-butyrylthiocholine iodide] yielded a B (Equine-BChE, soluble) of 1.8, a Kcat (Equine-BChE, soluble) of 31000 min⁻¹ and a Km (Equine-BChE, soluble) of 127 µM. It also gave a Kss (Equine-BChE, soluble) of 1.5 mM, a Kcat [2] of 18000 min⁻¹ and a Km [2] of 1.2 mM. It also gave a Kss [2] of 16 mM.

— patent publication EP1175509B1 (priority 1999, dated 2000)
